Assay results reported in US20040102468A1 (Gruenenthal GmbH, priority 2001, published 2004).

Experiments:
rat = rat model of rhythmic bladder contractions; cited from earlier work
[1] = test system: female Sprague-Dawley rats with oxyhaemoglobin-induced bladder overactivity; test: Cystometry on conscious damaged rats (oxyhaemoglobin-induced bladder overactivity, urgency incontinence model); type: in vivo, rat; settings: OxyHb 2.5 × 10^−4 M alone

Compound	effect on bladder function (rat)	BC bladder capacity, after (a) ([1]; n=5)	BC bladder capacity, change (dif.) compared with the pre-value ([1]; n=5)	ICI intercontraction interval, after (a) ([1]; n=5)	ICI intercontraction interval, change (dif.) compared with the pre-value ([1]; n=5)	MP micturition pressure, after (a) ([1]; n=5)	MP micturition pressure, change (dif.) compared with the pre-value ([1]; n=5)	TP threshold pressure, after (a) ([1]; n=5)	TP threshold pressure, change (dif.) compared with the pre-value ([1]; n=5)	BC bladder capacity, before (b) ([1]; n=5, pre-value)	ICI intercontraction interval, before (b) ([1]; n=5, pre-value)	MP micturition pressure, before (b) ([1]; n=5, pre-value)	TP threshold pressure, before (b) ([1]; n=5, pre-value)
COc1cccc(C2(O)CCCCC2CN(C)C)c1 (stereo not shown) [tramadol]	positive effect on bladder function	–	–	–	–	–	–	–	–	–	–	–	–
oxyhaemoglobin [OxyHb]	–	a: 0.65 ± 0.06 ml	dif.: −29.3%	a: 3.33 ± 0.18 min	dif.: −32.9%	a: 97 ± 5 cm H2O	dif.: +64.4%	a: 9.84 ± 1.56 cm H2O	dif.: +12.8%	b: 0.92 ± 0.10 ml	b: 4.96 ± 0.33 min	b: 59 ± 8 cm H2O	b: 8.72 ± 1.31 cm H2O
